Values joined by “and” are separate entries in the source; they are usually repeats but may differ in a detail not shown here. Equal values may be shown once. Toxic doses and inconclusive results are not listed. The calls were made as follows: active = survival T/C of 150% or more; inactive = T/C below 125% in these data.
Test system: CD2F1 mice, L1210 leukemia ip, survival T/C
Assay: NCI In Vivo Anticancer Drug Screen. Data for tumor model L1210 Leukemia (intraperitoneal) in CD2F1 (CDF1) mice
Conditions: higher = longer survival
Summary of the method: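 Read-out first: treated-group measurement over vehicle-control measurement, expressed as a ratio. Animals bore a transplanted tumor line and were dosed with compound or vehicle.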

[1] = endpoint: mean survival time, dose: 100.0 mg/kg/injection, schedule: Q01DX001 (ip), vehicle: saline with Tween-80
[2] = endpoint: mean survival time, dose: 200.0 mg/kg/injection, schedule: Q01DX001 (ip), vehicle: saline with Tween-80
[3] = endpoint: mean survival time, dose: 400.0 mg/kg/injection, schedule: Q01DX001 (ip), vehicle: saline with Tween-80
[4] = endpoint: mean survival time, dose: 100.0 mg/kg/injection, schedule: Q04DX003 (ip), vehicle: saline with Tween-80
[5] = endpoint: mean survival time, dose: 200.0 mg/kg/injection, schedule: Q04DX003 (ip), vehicle: saline with Tween-80
[6] = endpoint: mean survival time, dose: 100.0 mg/kg/injection, schedule: Q04DX002 (ip), vehicle: saline with Tween-80
[7] = endpoint: mean survival time, dose: 200.0 mg/kg/injection, schedule: Q04DX002 (ip), vehicle: saline with Tween-80
[8] = endpoint: mean survival time, dose: 400.0 mg/kg/injection, schedule: Q04DX002 (ip), vehicle: saline with Tween-80

Measured: T/C

O=C1NC2CC3CC(C2)CC1C3
inactive: endpoint: mean survival time, dose: 12.5 mg/kg/injection, schedule: Q04DX003 (ip), vehicle: alcohol 100 % of control | endpoint: mean survival time, dose: 25.0 mg/kg/injection, schedule: Q04DX003 (ip), vehicle: alcohol 92 % of control | endpoint: mean survival time, dose: 50.0 mg/kg/injection, schedule: Q04DX003 (ip), vehicle: alcohol 97 % of control

Nc1nc(N)c2c(n1)CCCC2
inactive: endpoint: mean survival time, dose: 12.5 mg/kg/injection, schedule: Q01DX009 (ip), vehicle: saline with Tween-80 93 % of control | endpoint: mean survival time, dose: 25.0 mg/kg/injection, schedule: Q01DX009 (ip), vehicle: saline with Tween-80 88 % of control

OCC(O)C(O)C(O)c1csc(=S)[nH]1 (stereo not given)
inactive: [1] 97 % of control | [2] 103 % of control | [3] 100 % of control

CC(=O)[CH-]C(C)=O.O=[N+]([O-])O.[NH-]C1CCCCC1[NH-].[Pt+4] (stereo not given)
inactive: endpoint: mean survival time, dose: 1.25 mg/kg/injection, schedule: Q04DX003 (ip), vehicle: water 95 % of control | endpoint: mean survival time, dose: 2.5 mg/kg/injection, schedule: Q04DX003 (ip), vehicle: water 98 % of control | endpoint: mean survival time, dose: 5.0 mg/kg/injection, schedule: Q04DX003 (ip), vehicle: water 98 % of control | endpoint: mean survival time, dose: 10.0 mg/kg/injection, schedule: Q04DX003 (ip), vehicle: water 110 % of control

CCOc1ccnc(OCC)n1
inactive: [4] 105 % of control | [5] 102 % of control

CN(C)C(=O)OC1CCCC1[N+](C)(C)CCCCCCCC[N+](C)(C)C1CCCC1OC(=O)N(C)C (stereo not given)
inactive: endpoint: mean survival time, dose: 0.19 mg/kg/injection, schedule: Q01DX009 (ip), vehicle: saline 104 % of control | endpoint: mean survival time, dose: 0.31 mg/kg/injection, schedule: Q04DX003 (ip), vehicle: saline 100 % of control | endpoint: mean survival time, dose: 0.39 mg/kg/injection, schedule: Q01DX009 (ip), vehicle: saline 104 % of control | endpoint: mean survival time, dose: 0.62 mg/kg/injection, schedule: Q04DX003 (ip), vehicle: saline 98 % of control | endpoint: mean survival time, dose: 0.78 mg/kg/injection, schedule: Q01DX009 (ip), vehicle: saline 98 % of control

CCC(CO)C(C)C (stereo not given)
inactive: [4] 97 % of control | [5] 100 % of control

C#CCSc1c(Cl)c(Cl)c(Cl)c(Cl)c1Cl
inactive: [6] 87 % of control | [7] 95 % of control | [8] 87 % of control

CCCCCCCCCCCCCCCCOC(=O)c1cc([N+](=O)[O-])c(Sc2ncnc3nc[nH]c23)c([N+](=O)[O-])c1
inactive: endpoint: mean survival time, dose: 6.25 mg/kg/injection, schedule: Q01DX005 (ip), vehicle: other 105 % of control | endpoint: mean survival time, dose: 12.5 mg/kg/injection, schedule: Q01DX005 (ip), vehicle: other 110 % of control | endpoint: mean survival time, dose: 25.0 mg/kg/injection, schedule: Q01DX005 (ip), vehicle: other 107 % of control | endpoint: mean survival time, dose: 50.0 mg/kg/injection, schedule: Q01DX005 (ip), vehicle: other 117 % of control | endpoint: mean survival time, dose: 100.0 mg/kg/injection, schedule: Q01DX005 (ip), vehicle: other 102 % of control

O=C(O)CCOc1cc(F)c(F)cc1F
inactive: [6] 101 % of control | [7] 90 % of control | [8] 97 % of control

O=C1C2C3C=CC(C3)C2C(=NS(=O)(=O)c2ccccc2)C2C3C=CC(C3)C12 (stereo not given)
inactive: endpoint: mean survival time, dose: 100.0 mg/kg/injection, schedule: Q04DX003 (ip), vehicle: Klucel (hydroxypropylcellulose) (HPC) 91 % of control | endpoint: mean survival time, dose: 200.0 mg/kg/injection, schedule: Q04DX003 (ip), vehicle: Klucel (hydroxypropylcellulose) (HPC) 93 % of control | endpoint: mean survival time, dose: 400.0 mg/kg/injection, schedule: Q04DX003 (ip), vehicle: Klucel (hydroxypropylcellulose) (HPC) 91 % of control

CC(C)c1ccc(P(c2ccc(C(C)C)cc2)c2ccc(C(C)C)cc2)cc1
inactive: endpoint: mean survival time, dose: 25.0 mg/kg/injection, schedule: Q04DX002 (ip), vehicle: saline with Tween-80 103 % of control | endpoint: mean survival time, dose: 50.0 mg/kg/injection, schedule: Q04DX002 (ip), vehicle: saline with Tween-80 88 % of control | [6] 88 % of control

Cc1ccc(Cl)cc1S
inactive: endpoint: mean survival time, dose: 75.0 mg/kg/injection, schedule: Q01DX001 (ip), vehicle: saline 98 % of control | endpoint: mean survival time, dose: 150.0 mg/kg/injection, schedule: Q01DX001 (ip), vehicle: saline 102 % of control | endpoint: mean survival time, dose: 300.0 mg/kg/injection, schedule: Q01DX001 (ip), vehicle: saline 103 % of control

CC(=O)CC(=O)c1ccccc1.CC(=O)CC(=O)c1ccccc1.[Cl][Sn][Cl]
inactive: [1] 92 % of control | [2] 100 % of control | [3] 107 % of control

O=[N+]([O-])c1ccc(Cc2ncnc3c2ncn3C2OC(CO)C(O)C2O)cc1 (stereo not given)
inactive: endpoint: mean survival time, dose: 12.5 mg/kg/injection, schedule: Q01DX005 (ip), vehicle: distilled water + Tween-80 103 % of control | endpoint: mean survival time, dose: 25.0 mg/kg/injection, schedule: Q01DX005 (ip), vehicle: distilled water + Tween-80 105 % of control | endpoint: mean survival time, dose: 50.0 mg/kg/injection, schedule: Q01DX005 (ip), vehicle: distilled water + Tween-80 108 % of control | endpoint: mean survival time, dose: 100.0 mg/kg/injection, schedule: Q01DX005 (ip), vehicle: distilled water + Tween-80 120 % of control | endpoint: mean survival time, dose: 200.0 mg/kg/injection, schedule: Q01DX005 (ip), vehicle: distilled water + Tween-80 120 % of control

O=S(=O)(CC(I)c1ccccc1)c1ccccc1 (stereo not given)
inactive: endpoint: mean survival time, dose: 75.0 mg/kg/injection, schedule: Q01DX009 (ip), vehicle: saline 99 % of control | endpoint: mean survival time, dose: 150.0 mg/kg/injection, schedule: Q01DX009 (ip), vehicle: saline 91 % of control | endpoint: mean survival time, dose: 300.0 mg/kg/injection, schedule: Q01DX009 (ip), vehicle: saline 92 % of control

Cc1ccc(S(=O)(=O)N/N=C/c2ccc(O)c(O)c2)cc1
inactive: endpoint: mean survival time, dose: 12.5 mg/kg/injection, schedule: Q04DX003 (ip), vehicle: other 101 % of control | endpoint: mean survival time, dose: 25.0 mg/kg/injection, schedule: Q04DX003 (ip), vehicle: other 98 % of control | endpoint: mean survival time, dose: 50.0 mg/kg/injection, schedule: Q04DX003 (ip), vehicle: other 101 % of control | endpoint: mean survival time, dose: 100.0 mg/kg/injection, schedule: Q04DX003 (ip), vehicle: other 101 % of control | endpoint: mean survival time, dose: 200.0 mg/kg/injection, schedule: Q04DX003 (ip), vehicle: other 95 % of control | endpoint: mean survival time, dose: 400.0 mg/kg/injection, schedule: Q04DX003 (ip), vehicle: other 101 % of control

CSc1cc(=O)n2c3ccccc3c3ccnc1c32
inactive: endpoint: mean survival time, dose: 1.25 mg/kg/injection, schedule: Q01DX009 (ip), vehicle: saline with Tween-80 103 % of control | endpoint: mean survival time, dose: 2.5 mg/kg/injection, schedule: Q01DX009 (ip), vehicle: saline with Tween-80 95 % of control | endpoint: mean survival time, dose: 5.0 mg/kg/injection, schedule: Q01DX009 (ip), vehicle: saline with Tween-80 97 % of control | endpoint: mean survival time, dose: 10.0 mg/kg/injection, schedule: Q01DX009 (ip), vehicle: saline with Tween-80 110 % of control

CS(C)=O
inactive: endpoint: mean survival time, dose: 46.87 mg/kg/injection, schedule: Q01DX009 (ip), vehicle: saline 95 % of control | endpoint: mean survival time, dose: 93.75 mg/kg/injection, schedule: Q01DX009 (ip), vehicle: saline 100 % of control and 103 % of control | endpoint: mean survival time, dose: 187.5 mg/kg/injection, schedule: Q01DX009 (ip), vehicle: saline 100 % of control and 101 % of control | endpoint: mean survival time, dose: 375.0 mg/kg/injection, schedule: Q01DX009 (ip), vehicle: saline 95 % of control and 100 % of control | endpoint: mean survival time, dose: 750.0 mg/kg/injection, schedule: Q01DX009 (ip), vehicle: saline 97 % of control and 100 % of control | endpoint: mean survival time, dose: 1500.0 mg/kg/injection, schedule: Q01DX009 (ip), vehicle: saline 100 % of control | endpoint: mean survival time, dose: 1.5 grams/kg/injection, schedule: Q01DX009 (ip), vehicle: saline 87 % of control and 100 % of control | endpoint: mean survival time, dose: 3.0 grams/kg/injection, schedule: Q01DX009 (ip), vehicle: saline 95 % of control | endpoint: mean survival time, dose: 6.0 grams/kg/injection, schedule: Q01DX009 (ip), vehicle: saline 89 % of control and 100 % of control

O=S(=O)(O)O.[NH-]CC1(C[NH-])CCCCC1.[Pt+2]
inactive: endpoint: mean survival time, dose: 25.0 mg/kg/injection, schedule: Q04DX003 (ip), vehicle: saline 96 % of control | endpoint: median survival time, dose: 15.98 mg/kg/injection, schedule: Q04DX003 (ip), vehicle: dextrose 108 % of control | endpoint: median survival time, dose: 18.0 mg/kg/injection, schedule: Q04DX003 (ip), vehicle: dextrose 93 % of control | endpoint: median survival time, dose: 24.0 mg/kg/injection, schedule: Q04DX003 (ip), vehicle: dextrose 105 % of control

NC(=O)CC(N)C(=O)O.[Cl-].[Cl-].[Cl-].[Cl-].[Pt+2] (stereo not given)
inactive: endpoint: mean survival time, dose: 0.78 mg/kg/injection, schedule: Q01DX009 (ip), vehicle: water 101 % of control | endpoint: mean survival time, dose: 1.56 mg/kg/injection, schedule: Q01DX009 (ip), vehicle: water 95 % of control | endpoint: mean survival time, dose: 3.13 mg/kg/injection, schedule: Q01DX009 (ip), vehicle: water 98 % of control | endpoint: mean survival time, dose: 6.25 mg/kg/injection, schedule: Q01DX009 (ip), vehicle: water 90 % of control | endpoint: mean survival time, dose: 12.5 mg/kg/injection, schedule: Q01DX009 (ip), vehicle: water 101 % of control
